Some test systems named below: 786-0 renal; SK-MEL-5 melanoma; COLO 205 colon; RXF 393 renal; SF-268 CNS; OVCAR-3 ovarian; OVCAR-5 ovarian; DU-145 prostate; OVCAR-4 ovarian; MALME-3M melanoma.
What all share (test): NCI tumour cell line growth inhibition, 48 h

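1) Cells in 96-well plates. 2) Compound, 48 h, 5 concentrations. 3) Linear interpolation between surrounding doses. 4) Unreached endpoint = highest concentration. At the TGI there is no net growth.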

As to `COC(=O)C(=O)C(C(=O)C(=O)Nc1ccccc1C(N)=O)c1nc2ccc(Cl)cc2[nH]c1=O` (stereo not drawn), the TGI in the assay on 786-0 renal, with SK-MEL-5 melanoma, in the assay with COLO 205 colon, in the assay on RXF 393 renal, in the assay on SF-268 CNS and with OVCAR-3 ovarian was over 100 µM in each case. Besides, the TGI in the assay with OVCAR-5 ovarian, with DU-145 prostate and in the assay with OVCAR-4 ovarian was over 100 µM in each case.

Regarding `NC1C/C(=N\O)c2c(Cl)sc(Cl)c21` (stereo not drawn), the TGI is 33.4 µM in the assay with 786-0 renal; 61.4 µM in the assay on COLO 205 colon; over 100 µM in the assay on SF-268 CNS; 31.8 µM in the assay on OVCAR-3 ovarian; 40 µM in the assay on OVCAR-5 ovarian; 29 µM with DU-145 prostate. The TGI is 38.4 µM with OVCAR-4 ovarian and 34.5 µM with MALME-3M melanoma.

With `CN(CCC(=O)N1CC(CCl)c2ccc([N+](=O)[O-])cc21)CCC(=O)N1CC(CCl)c2ccc([N+](=O)[O-])cc21` (stereo not drawn), the TGI with 786-0 renal was 25 µM; in the assay with SK-MEL-5 melanoma, 24.8 µM; in the assay with COLO 205 colon it was 31.6 µM; in the assay on SF-268 CNS, 28.5 µM; in the assay with OVCAR-3 ovarian, 23.7 µM; in the assay with OVCAR-5 ovarian it was over 100 µM. In addition, the TGI with DU-145 prostate is over 100 µM; in the assay on OVCAR-4 ovarian, over 100 µM; with MALME-3M melanoma it was 23.7 µM.

For `O=C1Cc2c([nH]c3ccc(Br)cc23)-c2cc(Br)ccc2N1`, the TGI in the assay on 786-0 renal, in the assay with SK-MEL-5 melanoma, with COLO 205 colon, with SF-268 CNS, in the assay on OVCAR-5 ovarian and with DU-145 prostate was over 100 µM each time. Moreover, in the assay on OVCAR-4 ovarian, the TGI is over 100 µM.

Regarding `CC(=O)OCC(OC(C)=O)C1C[C@H]2O[C@@H]3[C@H](C[C@H]2O1)O[C@@]1(C[C@@H]3C)C[C@H](C)[C@@H]2O[C@]3(C[C@@H]2O1)C[C@H]1O[C@H]2[C@H](C)[C@H]4OC(=O)C[C@H]5CC[C@@H]6OC7[C@H]8O[C@]9(CC[C@H]%10CC(=O)[C@H](CC[C@H]%11C[C@@H](C)C(=O)C(C[C@@H]4O[C@H]2C[C@H]1O3)O%11)O%10)CC8O[C@@H]7[C@@H](O9)[C@H]6O5` (stereo partly drawn), the TGI in the assay with 786-0 renal was over 1 µM; in the assay on SK-MEL-5 melanoma it was over 1 µM; in the assay on COLO 205 colon it was 0.0749 µM; with RXF 393 renal, over 1 µM; in the assay on SF-268 CNS, over 1 µM; with OVCAR-3 ovarian it was over 1 µM. For the same compound, the TGI in the assay on DU-145 prostate and in the assay on OVCAR-4 ovarian was over 1 µM in each case.

Take `CSC1=N/C(=C\c2ccc(C)cc2)C(=O)N1`: the TGI is over 100 µM with 786-0 renal; over 100 µM in the assay on COLO 205 colon; 96.2 µM in the assay with RXF 393 renal; over 100 µM with SF-268 CNS; over 100 µM in the assay on OVCAR-3 ovarian; over 100 µM in the assay with OVCAR-5 ovarian. For the same compound, the TGI with DU-145 prostate, with OVCAR-4 ovarian and with MALME-3M melanoma was over 100 µM each time.

Consider `O=C(O)c1cccc(Nc2c(C(=O)O)cccc2[N+](=O)[O-])c1`, for which the TGI in the assay on 786-0 renal, in the assay on SK-MEL-5 melanoma, in the assay with COLO 205 colon, in the assay with OVCAR-3 ovarian, with OVCAR-5 ovarian and in the assay on DU-145 prostate was over 100 µM throughout. For the same compound, the TGI in the assay on OVCAR-4 ovarian and with MALME-3M melanoma was over 100 µM each time.

Take `O=[N+]([O-])/C(C(Cl)=C(Cl)Cl)=C1\Nc2ccc([N+](=O)[O-])cc2N1`: the TGI with 786-0 renal, in the assay on SK-MEL-5 melanoma, in the assay on COLO 205 colon, in the assay on SF-268 CNS, in the assay with OVCAR-3 ovarian and in the assay with OVCAR-5 ovarian was over 100 µM each time. Further, the TGI in the assay with DU-145 prostate, in the assay on OVCAR-4 ovarian and in the assay with MALME-3M melanoma was over 100 µM throughout.

With `Cc1sc2nc(N(C)C)oc(=O)c2c1C`, the TGI in the assay on 786-0 renal, with SK-MEL-5 melanoma, in the assay on COLO 205 colon, in the assay on RXF 393 renal, in the assay on SF-268 CNS and in the assay with OVCAR-5 ovarian was over 100 µM throughout. For the same compound, the TGI with DU-145 prostate, with OVCAR-4 ovarian and in the assay on MALME-3M melanoma was over 100 µM each time.

On to `O=S(=O)(/N=S(/Nc1ccccc1)C(Cl)Cl)c1ccccc1` (stereo not drawn), for which the TGI with 786-0 renal, in the assay with COLO 205 colon, in the assay with RXF 393 renal, in the assay on SF-268 CNS, in the assay with OVCAR-3 ovarian and in the assay on OVCAR-5 ovarian was over 100 µM in each case. For the same compound, the TGI in the assay on DU-145 prostate, in the assay with OVCAR-4 ovarian and in the assay on MALME-3M melanoma was over 100 µM in each case.

As to `Cc1c(N=Nc2ccccc2)c(-c2ccccc2)n(C2OC(CO)C(O)C(O)C2O)c(=S)c1C#N` (stereo not drawn), the TGI in the assay with 786-0 renal came to 18.8 µM; with COLO 205 colon, 31.3 µM; with RXF 393 renal, 10.3 µM; in the assay with SF-268 CNS it was 37 µM; in the assay on OVCAR-3 ovarian, 18 µM; in the assay with OVCAR-5 ovarian, 28.9 µM. Also, the TGI came to 41.7 µM with DU-145 prostate, 26.1 µM in the assay with OVCAR-4 ovarian and 30.6 µM in the assay on MALME-3M melanoma.

In the case of `COc1ccc(CC2Cc3ccccc3CCN2)cc1OC` (stereo not drawn), the TGI in the assay with 786-0 renal is over 50 µM; in the assay on COLO 205 colon, 21.4 µM; in the assay on RXF 393 renal it was over 50 µM; with SF-268 CNS, over 50 µM; with OVCAR-3 ovarian, over 50 µM; in the assay with OVCAR-5 ovarian, over 50 µM. Further, the TGI in the assay on DU-145 prostate, in the assay on OVCAR-4 ovarian and in the assay with MALME-3M melanoma was over 50 µM throughout.

Take `CN(C)CCn1c(=O)c2ccc(NCCNCCO)c3c(=O)c4ccccc4n(c1=O)c23`: the TGI with 786-0 renal is 4.16 µM; in the assay on SK-MEL-5 melanoma, 0.813 µM; in the assay with COLO 205 colon, 0.836 µM; in the assay on SF-268 CNS, 0.977 µM; with OVCAR-3 ovarian it was 5.66 µM; with OVCAR-5 ovarian, 5.19 µM. Moreover, the TGI with DU-145 prostate was 0.628 µM; with OVCAR-4 ovarian it was 5.24 µM; in the assay with MALME-3M melanoma it was 3.41 µM.

For the compound `CC(=O)O[C@H]1C(=O)[C@@]2(C)[C@H]([C@H](OC(=O)c3ccccc3)[C@]3(O)C[C@H](OC(=O)[C@H](O)[C@@H](NC(=O)c4ccc(N)cc4)c4ccccc4)C(C)=C1C3(C)C)[C@]1(OC(C)=O)CO[C@@H]1C[C@@H]2O`, the TGI with 786-0 renal is over 50 µM; in the assay with SK-MEL-5 melanoma, over 50 µM; in the assay with RXF 393 renal, over 50 µM; in the assay with SF-268 CNS it was over 50 µM; with OVCAR-3 ovarian, 0.0224 µM; with OVCAR-5 ovarian, over 50 µM. The TGI is 31.4 µM with DU-145 prostate and over 50 µM in the assay with OVCAR-4 ovarian.

For the compound `COC(=O)/C(C)=N/NC(=S)SC`, the TGI in the assay on 786-0 renal was over 100 µM; in the assay with SK-MEL-5 melanoma, over 100 µM; in the assay with RXF 393 renal, 97 µM; with SF-268 CNS, over 100 µM; in the assay with OVCAR-3 ovarian it was over 100 µM; in the assay on OVCAR-5 ovarian, over 100 µM. Also, the TGI with DU-145 prostate and with OVCAR-4 ovarian was over 100 µM throughout.

Consider `O=C(CP(=O)(c1ccccc1)c1ccccc1)c1cccc(C(=O)CP(=O)(c2ccccc2)c2ccccc2)c1`, for which the TGI in the assay with 786-0 renal was over 100 µM; with SK-MEL-5 melanoma, over 100 µM; in the assay with COLO 205 colon, over 100 µM; in the assay on RXF 393 renal it was 52.7 µM; with SF-268 CNS it was over 100 µM; in the assay with OVCAR-5 ovarian it was over 100 µM. Also, the TGI with DU-145 prostate and with OVCAR-4 ovarian was over 100 µM throughout.

As to `Cc1cccc(N/C(=C(/C(Cl)=C(Cl)Cl)[N+](=O)[O-])n2nnc3ccccc32)c1`, the TGI amounted to 35.7 µM with 786-0 renal; 32.8 µM in the assay with COLO 205 colon; 31.1 µM in the assay on SF-268 CNS; 35.5 µM in the assay with OVCAR-3 ovarian; 38 µM with OVCAR-5 ovarian; 39.5 µM in the assay on OVCAR-4 ovarian. Further, in the assay with MALME-3M melanoma, the TGI was found to be 28.1 µM.

In the case of `O=S(=O)(O)CCSSCCS(=O)(=O)O`, the TGI in the assay with 786-0 renal, in the assay on COLO 205 colon, in the assay with RXF 393 renal, in the assay on SF-268 CNS, in the assay with OVCAR-3 ovarian and with OVCAR-5 ovarian was over 1000 µM throughout. In addition, the TGI in the assay on DU-145 prostate, with OVCAR-4 ovarian and in the assay on MALME-3M melanoma was over 1000 µM in each case.

As for `COc1ccc(N2C(=O)C3c4[nH]c5ccc(C)cc5c4C4CCC(C(C)(C)C)CC4C3C2=O)cc1` (stereo not drawn), the TGI was 48.7 µM in the assay on 786-0 renal; over 100 µM in the assay on SK-MEL-5 melanoma; over 100 µM in the assay on COLO 205 colon; 38.8 µM in the assay with RXF 393 renal; 64.5 µM with SF-268 CNS; 32 µM in the assay with OVCAR-3 ovarian. Also, the TGI is over 100 µM in the assay on DU-145 prostate and 10.8 µM with OVCAR-4 ovarian.

For `Cc1cn(C2OC(CO[Si](C)(C)C(C)(C)C)/C(=C\C#N)C2O[Si](C)(C)C(C)(C)C)c(=O)[nH]c1=O` (stereo not drawn), the TGI in the assay on 786-0 renal is over 100 µM; in the assay on SK-MEL-5 melanoma it was over 100 µM; in the assay on COLO 205 colon, over 100 µM; in the assay with RXF 393 renal it was 92 µM; in the assay with SF-268 CNS, over 100 µM; with OVCAR-3 ovarian it was over 100 µM. The TGI with OVCAR-5 ovarian, in the assay on DU-145 prostate and in the assay with OVCAR-4 ovarian was over 100 µM each time.

As to `CCCCNC(=S)Nc1nc(C(=O)NNC(=S)NCC)cs1`, the TGI in the assay with 786-0 renal, in the assay with SK-MEL-5 melanoma, in the assay with COLO 205 colon, in the assay on SF-268 CNS, with OVCAR-3 ovarian and in the assay with OVCAR-5 ovarian was over 100 µM throughout. Also, the TGI with DU-145 prostate, in the assay on OVCAR-4 ovarian and in the assay on MALME-3M melanoma was over 100 µM throughout.

The record behind these values is PubChem BioAssay (NCI).
